Reference: patent publication US12485123B2, “1H-pyrazolo[4,3-d]pyrimidine compounds as toll-like receptor 7 (TLR7) agonists” (BRISTOL-MYERS SQUIBB COMPANY, priority 2020, dated 2025)

How the values were obtained:
human TLR7 = target: T1, human TLR7 (Homo sapiens, UniProt Q9NYK1); assay: Human TLR7 agonist activity reporter assay (HEK-Blue TLR7 cells, SEAP reporter); format: cell-based; conditions: human TLR7 (hTLR7) reporter assay, SEAP readout after 18 h, average where assay repeated, read-out: TLR7 Agonism EC50
T1 construct: host or cells: HEK-Blue TLR7 cells (engineered human embryonic kidney cells)
T1 sequence (Q9NYK1 27-1049): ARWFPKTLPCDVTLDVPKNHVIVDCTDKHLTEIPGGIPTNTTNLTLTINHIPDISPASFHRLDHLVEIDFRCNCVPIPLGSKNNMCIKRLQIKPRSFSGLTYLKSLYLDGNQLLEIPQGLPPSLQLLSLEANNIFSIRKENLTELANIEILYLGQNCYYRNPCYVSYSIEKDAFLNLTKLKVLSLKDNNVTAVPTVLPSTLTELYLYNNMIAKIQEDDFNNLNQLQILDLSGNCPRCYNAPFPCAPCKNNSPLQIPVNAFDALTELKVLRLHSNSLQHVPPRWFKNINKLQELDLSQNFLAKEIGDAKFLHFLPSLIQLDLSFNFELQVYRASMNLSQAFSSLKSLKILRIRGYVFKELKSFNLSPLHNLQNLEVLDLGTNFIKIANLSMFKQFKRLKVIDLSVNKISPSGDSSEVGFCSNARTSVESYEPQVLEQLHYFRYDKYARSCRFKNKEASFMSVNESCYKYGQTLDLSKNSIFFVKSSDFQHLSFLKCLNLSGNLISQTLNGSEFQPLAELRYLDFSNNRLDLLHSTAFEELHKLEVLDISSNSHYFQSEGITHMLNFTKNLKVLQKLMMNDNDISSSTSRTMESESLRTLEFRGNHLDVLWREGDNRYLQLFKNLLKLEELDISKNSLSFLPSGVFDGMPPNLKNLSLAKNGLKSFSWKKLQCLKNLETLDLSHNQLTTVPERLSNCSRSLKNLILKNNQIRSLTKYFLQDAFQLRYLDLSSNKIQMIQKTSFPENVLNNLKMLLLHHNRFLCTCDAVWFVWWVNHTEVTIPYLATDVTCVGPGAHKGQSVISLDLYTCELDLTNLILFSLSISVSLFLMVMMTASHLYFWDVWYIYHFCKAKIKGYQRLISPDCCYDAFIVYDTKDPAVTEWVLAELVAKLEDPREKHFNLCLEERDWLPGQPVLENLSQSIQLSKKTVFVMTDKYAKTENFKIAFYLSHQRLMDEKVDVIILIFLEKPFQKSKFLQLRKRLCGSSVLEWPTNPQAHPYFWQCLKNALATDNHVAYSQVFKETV
Procedure: Human TLR7 Agonist Activity Assay
This procedure describes a method for assaying human TLR7 (hTLR7) agonist activity of the compounds disclosed in this specification.
HEK-Blue™ TLR7 cells were added to each well of a 384-well tissue-culture plate (15,000 cells per well) and incubated 16-18 h at 37° C., 5% CO2. Compounds (100 nl) were dispensed into wells containing the HEK-Blue™ TLR cells and the treated cells were incubated at 37° C., 5% CO2. After 18 h treatment ten microliters of freshly-prepared Quanti-Blue™ reagent (Invivogen) was added to each well, incubated for 30 min (37° C., 5% CO2) and SEAP levels measured using an Envision plate reader (OD=620 nm).

CD69 = assay: Induction of CD69 in human whole blood; format: cell-based; conditions: 17 hrs incubation, CD69 surface staining, 100% set to 1 uM of resiquimod, average where assay repeated, read-out: hWB CD69 EC50

Row | SMILES | EC50 (human TLR7) [µM] | EC50 (CD69) [µM]
1 | CCC[C@@H](CCO)Nc1nc(N)nc2cnn(Cc3ccc(CN4CC(O)C4)c4cccnc34)c12 [Compound 105, 1-({8-[(5-amino-7-{[(3S)-1-hydroxyhexan-3-yl]amino}-1H-pyrazolo[4,3-d]pyrimidin-1-yl)methyl]quinolin-5-yl}methyl)azetidin-3-ol] | 0.0494 | 0.0138
2 | CCC[C@@H](CCO)Nc1nc(N)nc2cnn(Cc3ccc(C(=O)N4C[C@H]5CN(C)C[C@H]5C4)c4cccnc34)c12 [Compound 125, (3S)-3-{[1-([5-[(3aR,6aS)-5-methyl-octahydropyrrolo[3,4-c]pyrrole-2-carbonyl]quinolin-8-yl}methyl)-5-amino-1H-pyrazolo[4,3-d]pyrimidin-7-yl]amino}hexan-1-ol] | 0.0337 | 0.0833
3 | CCC[C@@H](CCO)Nc1nc(N)nc2cnn(Cc3ccc(CNC4CCC4)c4cccnc34)c12 [Compound 103, (3S)-3-{[5-amino-1-({5-[(cyclobutylamino)methyl]quinolin-8-yl}methyl)-1H-pyrazolo[4,3-d]pyrimidin-7-yl]amino}hexan-1-ol] | 0.0138 | 0.0106
4 | CCC[C@@H](CCO)Nc1nc(N)nc2cnn(Cc3ccc(CN4CCN(CCO)CC4)c4cccnc34)c12 [Compound 139, (3S)-3-({5-amino-1-[(5-{[4-(2-hydroxyethyl)piperazin-1-yl]methyl}quinolin-8-yl)methyl]-1H-pyrazolo[4,3-d]pyrimidin-7-yl}amino)hexan-1-ol] | 0.0055 | 0.0162
5 | CCC[C@@H](CCO)Nc1nc(N)nc2cnn(Cc3ccc(C(=O)NC4CCOCC4)c4cccnc34)c12 [Compound 114, 8-[(5-amino-7-{[(3S)-1-hydroxyhexan-3-yl]amino}-1H-pyrazolo[4,3-d]pyrimidin-1-yl)methyl]-N-(oxan-4-yl)quinoline-5-carboxamide] | 0.0752 | 0.369
6 | CCC[C@@H](CCO)Nc1nc(N)nc2cnn(Cc3ccc(CN4CC(OC)C4)c4cccnc34)c12 [Compound 102, (3S)-3-{[5-amino-1-({5-[(3-methoxyazetidin-1-yl)methyl]quinolin-8-yl}methyl)-1H-pyrazolo[4,3-d]pyrimidin-7-yl]amino}hexan-1-ol] | 0.0308 | 0.0122
